Like-named read-outs stand apart in the source and are kept apart here.
Key:
[1] = test system: RNA synthesis in Raji cells; experiment: Antimetabolic activity assay, [5-3H]uridine incorporation (RNA synthesis), Raji; assay type: cell-based; details: Homo sapiens, incorporation into TCA-insoluble material
Method: [The procedure below names another cell line; the source lists this cell line under the same test.] (§1) Radiolabeled precursors of DNA synthesis ([^3H-methyl]dThd), RNA synthesis ([5-^3H]Urd), and protein synthesis ([4,5-^3H]leu) were added to 10^5 CEM cell cultures in the 200 μl-wells of a microtiter plate at 1 μCi for each precursor in the presence of varying concentrations of the test compounds (5-fold dilution series). The cells were allowed to proliferate for 20 hrs at 37° C. in a humidified, CO2-controlled atmosphere. At the end of the incubation period, the contents of the wells were brought onto 25-mm glass fiber filters and further processed for measurement of acid-insoluble radioactivity.

[2] = test system: Caki-1 kidney carcinoma cells; experiment: Cytostatic assay, Caki-1; assay type: cell-based; details: Homo sapiens, Table 3
How it was run: (§2)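 Cells (5-7.5×10^4/well) + test compound; growth 48–96 h (line-dependent), 37° C, humidified CO2 atmosphere; endpoint Coulter count.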

[3] = test system: FM3A mammary carcinoma cells; experiment: Cytostatic assay, FM3A; assay type: cell-based, murine; details: Mus musculus, Table 3
How it was run: as §2

[4] = test system: 22Rv1 (UZ) prostate cancer cells; experiment: Cytostatic assay, 22Rv1 (UZ); assay type: cell-based; details: Homo sapiens, Table 4
How it was run: as §2

[5] = test system: HOS CD4+ osteosarcoma cells; experiment: Cytostatic assay, HOS CD4+; assay type: cell-based; details: Homo sapiens; Table 3
Method: (§3) To each well of a 96-well microtiter plate were added 5-7.5×10^4 cells and a given amount of the test compound. The cells were allowed to proliferate for 48 h to 96 h (depending on the nature of the cell line) at 37° C. in a humidified CO2-controlled atmosphere. At the end of the incubation period, the cells were counted in a Coulter Counter (Coulter Electronics Ltd, Harpenden Herts, United Kingdom).

MT-2 cells = experiment: Cytostatic assay, MT-2; assay type: cell-based; details: Homo sapiens, MT2; Table 2
How it was run: as §2

MT-4 cells = experiment: Cytostatic assay, MT-4; assay type: cell-based; details: Homo sapiens, MT4; Table 2
How it was run: as §2

[6] = test system: THP-1, human monocytic cells; experiment: Cytostatic assay, THP-1; assay type: cell-based; details: Table 2
How it was run: as §2

Sup T1 cells = experiment: Cytostatic assay, Sup T1; assay type: cell-based; details: Homo sapiens, Table 2, read-out: Cytostatic activity (μM) Sup T 1
How it was run: as §2

[7] = test system: LNCaP (UZ) prostate cancer cells; experiment: Cytostatic assay, LNCaP (UZ); assay type: cell-based; details: Homo sapiens, Table 4
How it was run: as §2

[8] = test system: MCF-7 mammary carcinoma cells; experiment: Cytostatic assay, MCF-7; assay type: cell-based; details: Homo sapiens, MCF7; Table 3
How it was run: as §2

[9] = test system: DNA synthesis in Raji cells; experiment: Antimetabolic activity assay, [CH3-3H]dThd incorporation (DNA synthesis), Raji; assay type: cell-based; details: Homo sapiens, incorporation into TCA-insoluble material
Method: [The procedure below names another cell line; the source lists this cell line under the same test.] as §1

[10] = test system: OST TK- osteosarcoma cells; experiment: Cytostatic assay, OST TK-; assay type: cell-based; details: Homo sapiens; Table 3
How it was run: as §2

[11] = test system: HL60, human leukemia cells; experiment: Cytostatic assay, HL-60; assay type: cell-based; details: Table 2
How it was run: as §2

PLC/PRF/5 hepatoma cells = experiment: Cytostatic assay, PLC/PRF/5; assay type: cell-based; details: Homo sapiens, Table 4
How it was run: as §2

BPH-1 (UZ) = experiment: Cytostatic assay, BPH-1 (UZ); assay type: cell-based; details: Homo sapiens, Table 4
How it was run: as §2

[12] = test system: 293T embryonic kidney cells; experiment: Cytostatic assay, 293T; assay type: cell-based; details: Homo sapiens, HEK-293T; Table 3
How it was run: as §2

[13] = test system: PNT1A (UZ) prostate cells; experiment: Cytostatic assay, PNT1A (UZ); assay type: cell-based; details: Homo sapiens, Table 4
How it was run: as §2

C8166 cells = experiment: Cytostatic assay, C8166; assay type: cell-based; details: Homo sapiens, Table 2
How it was run: as §2

[14] = test system: RNA synthesis in CEM cells; experiment: Antimetabolic activity assay, [5-3H]uridine incorporation (RNA synthesis), CEM; assay type: cell-based; details: Homo sapiens, CCRF-CEM, incorporation into TCA-insoluble material
Method: as §1

[15] = test system: DNA synthesis in CEM cells; experiment: Antimetabolic activity assay, [CH3-3H]dThd incorporation (DNA synthesis), CEM; assay type: cell-based; details: Homo sapiens, CCRF-CEM, incorporation into TCA-insoluble material
Method: as §1

CEM cells = experiment: Cytostatic assay, CEM; assay type: cell-based; details: Homo sapiens, CCRF-CEM
How it was run: as §2

Molt4/C8 cells = experiment: Cytostatic assay, Molt4/C8; assay type: cell-based; details: Table 2
How it was run: as §2

[16] = test system: BAEC aortic endothelial cells; experiment: Cytostatic assay, BAEC; assay type: cell-based, bovine; details: Bos taurus, Table 3
How it was run: as §2

[17] = test system: HT29 colorectal carcinoma cells; experiment: Cytostatic assay, HT29; assay type: cell-based; details: Homo sapiens, HT-29; Table 3
How it was run: as §2

Huh-7 hepatoma cells = experiment: Cytostatic assay, Huh-7; assay type: cell-based; details: Homo sapiens, Table 4
How it was run: as §2

[18] = test system: DU145 (UZ) prostate cancer cells; experiment: Cytostatic assay, DU145 (UZ); assay type: cell-based; details: Homo sapiens, DU-145; Table 4
How it was run: as §2

[19] = test system: HEL embryonic lung fibroblast cells; experiment: Cytostatic assay, HEL; assay type: cell-based; details: Homo sapiens, Table 3
How it was run: as §2

U87 glioma cells = experiment: Cytostatic assay, U87; assay type: cell-based; details: Homo sapiens, U-87 MG; Table 3
How it was run: as §2

[20] = test system: PC-3 (UZ) prostate cancer cells; experiment: Cytostatic assay, PC-3 (UZ); assay type: cell-based; details: Table 4
How it was run: as §2

[21] = test system: protein synthesis in CEM cells; experiment: Antimetabolic activity assay, [4,5-3H]leucine incorporation (protein synthesis), CEM; assay type: cell-based; details: Homo sapiens, CCRF-CEM, incorporation into TCA-insoluble material
Method: as §1

[22] = test system: PC3 (rega) prostate cancer cells; experiment: Cytostatic assay, PC3 (rega); assay type: cell-based; details: Table 4
How it was run: as §2

HUT-78 cells = experiment: Cytostatic assay, HUT-78; assay type: cell-based; details: Homo sapiens, HuT78; Table 2
How it was run: as §2

L1210 cells = experiment: Cytostatic assay, L1210; assay type: cell-based; details: Mus musculus, Table 2
How it was run: as §2

[23] = test system: U87 CD4+/CXCR4+/CCR5+ glioma cells; experiment: Cytostatic assay, U87 CD4+/CXCR4+/CCR5+; assay type: cell-based; details: Homo sapiens, Glioma cell; Table 3
Method: as §3

[24] = test system: Caki-2 kidney carcinoma cells; experiment: Cytostatic assay, Caki-2; assay type: cell-based; details: Homo sapiens, Table 3
How it was run: as §2

[25] = test system: Raji, human B-lymphoma cells; experiment: Cytostatic assay, Raji; assay type: cell-based; details: Table 2
How it was run: as §2

[26] = test system: broad variety of tumor cell lines; experiment: Cytostatic assays, summary over the panel of cell lines (Tables 2-4); assay type: cell-based
Method: as §3

[27] = test system: Daudi, human B-lymphoma cells; experiment: Cytostatic assay, Daudi; assay type: cell-based; details: Table 2
Method: as §3

[28] = test system: HeLa cervix carcinoma cells; experiment: Cytostatic assay, HeLa; assay type: cell-based, human; details: Homo sapiens; Table 3; read-out: Cytostatic activity (μM) Hela
How it was run: as §2

[29] = test system: protein synthesis in Raji cells; experiment: Antimetabolic activity assay, [4,5-3H]leucine incorporation (protein synthesis), Raji; assay type: cell-based; details: Homo sapiens, incorporation into TCA-insoluble material
Method: [The procedure below names another cell line; the source lists this cell line under the same test.] as §1

[30] = test system: U937, human monocytic cells; experiment: Cytostatic assay, U937; assay type: cell-based; details: U-937, Table 2
How it was run: as §2

HepG2C3A hepatoma cells = experiment: Cytostatic assay, HepG2C3A; assay type: cell-based; details: Homo sapiens, HepG2/C3A; Table 4
How it was run: as §2

- IC50 [1]: > 100 µM
- IC50 [2]: 6.5 ± 3.5 µM
- IC50 [3]: 67 ± 18 µM
- IC50 [4]: 9.1 ± 0.35 µM
- IC50 [5]: 48 ± 1.4 µM
- IC50 (MT-2 cells): 0.79 ± 0.092 µM
- IC50 [6]: 38 ± 6.4 µM
- IC50 (Sup T1 cells): 1.1 ± 0.73 µM
- IC50 [7]: 0.35 ± 0.014 µM
- IC50 [8]: 36 ± 9.2 µM
- IC50 [9]: ≥ 100 µM
- IC50 [10]: 9.8 ± 7.4 µM
- IC50 [11]: 5.7 ± 7.2 µM
- IC50 (PLC/PRF/5 hepatoma cells): 44 ± 2.1 µM
- IC50 (BPH-1 (UZ)): 52 ± 1.4 µM
- IC50 [13]: 39 ± 3.5 µM
- IC50 (C8166 cells): 2.2 µM
- IC50 [14]: 0.96 ± 0.37 µM
- IC50 [15]: 3.1 ± 1 µM
- IC50 (CEM cells; Table 1a, read-out: IC50 μM (CEM)): 1.5 µM
- IC50 (CEM cells; Table 2, read-out: Cytostatic activity (μM) CEM): 1.5 ± 1.3 µM
- IC50 (Molt4/C8 cells): 1.2 ± 0.6 µM
- IC50 [16]: 26 ± 4.2 µM
- IC50 [17]: 41 ± 2.8 µM
- IC50 (Huh-7 hepatoma cells): 1.7 ± 0.21 µM
- IC50 [18]: 5.4 ± 0.96 µM
- IC50 (U87 glioma cells): 50 ± 3.5 µM
- IC50 [20]: 0.51 ± 0.064 µM
- IC50 [21]: 0.61 ± 0.04 µM
- IC50 [22]: 0.24 ± 0.19 µM
- IC50 (HUT-78 cells): 36 ± 13 µM
- IC50 (L1210 cells): 25 µM
- IC50 [23]: 73 ± 3.5 µM
- IC50 [24]: 43 ± 4.2 µM
- IC50 [25]: 50 ± 3.5 µM
- IC50 ([26]; Homo sapiens, HuT78, range for the seven compounds, MT-4 and HUT-78 cells, read-out: IC50 range, cytostatic activity against MT-4 and HUT-78 cells): 8.5 to 60 µM
- IC50 ([26]; range for the seven compounds against the 5 tumor cell lines, read-out: IC50 range, cytostatic activity against CEM, Molt4/C8, Sup T1, MT-2 and C8166 cells): 0.22 to 3.4 µM
- IC50 [27]: 38 ± 2.1 µM
- IC50 [28]: 38 ± 2.8 µM
- IC50 [29]: 84 ± 6 µM
- IC50 [30]: 46 ± 7.1 µM
- IC50 (HepG2C3A hepatoma cells): 10 ± 5.2 µM
Structure (SMILES): COC(=O)c1cc(CCc2ccccc2)sc1N [TR575, 2-Amino-5-phenethyl-thiophene-3-carboxylic acid methyl ester]
- IC50 (MT-4 cells): 27 ± 0.71 µM
- IC50 [12]: 45 ± 16 µM
- IC50 [19]: 38 ± 12 µM
